The source of these data is ChEMBL document CHEMBL5465560, “Selectivity Literature for EUbOPEN Chemogenomic Library” (2024).

The structures appear in SMILES notation.

Assay [1] has as its target Mitogen-activated protein kinase 3 (Homo sapiens, UniProt P27361). Kind of assay: Selectivity interaction (ProQinase) EUB0000171b MAPK3.
For assay [2], the target named is T1, Discoidin domain-containing receptor 2 (Homo sapiens) (UniProt Q16832).
T1 sequence (whole entry): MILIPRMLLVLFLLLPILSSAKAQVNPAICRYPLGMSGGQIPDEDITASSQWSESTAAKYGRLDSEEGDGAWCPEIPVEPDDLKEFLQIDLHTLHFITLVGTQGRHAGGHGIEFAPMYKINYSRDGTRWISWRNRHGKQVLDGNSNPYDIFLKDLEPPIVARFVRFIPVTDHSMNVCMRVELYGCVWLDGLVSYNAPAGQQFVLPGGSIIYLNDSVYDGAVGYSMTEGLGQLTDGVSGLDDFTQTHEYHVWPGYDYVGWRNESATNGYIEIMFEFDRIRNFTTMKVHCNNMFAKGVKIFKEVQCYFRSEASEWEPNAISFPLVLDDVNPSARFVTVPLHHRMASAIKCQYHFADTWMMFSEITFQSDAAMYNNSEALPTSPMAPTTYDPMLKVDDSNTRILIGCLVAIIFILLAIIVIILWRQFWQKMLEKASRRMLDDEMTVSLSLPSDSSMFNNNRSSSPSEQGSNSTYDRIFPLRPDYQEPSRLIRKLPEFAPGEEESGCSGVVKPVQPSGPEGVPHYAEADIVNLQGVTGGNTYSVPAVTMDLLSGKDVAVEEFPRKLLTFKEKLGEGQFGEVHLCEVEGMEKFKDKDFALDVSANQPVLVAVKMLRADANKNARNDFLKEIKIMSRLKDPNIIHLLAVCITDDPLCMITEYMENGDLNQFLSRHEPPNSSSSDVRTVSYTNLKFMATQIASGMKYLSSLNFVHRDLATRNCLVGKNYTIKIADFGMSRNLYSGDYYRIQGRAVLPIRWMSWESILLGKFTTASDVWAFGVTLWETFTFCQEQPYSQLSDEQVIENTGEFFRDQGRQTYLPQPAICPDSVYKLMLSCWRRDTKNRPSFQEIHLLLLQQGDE
Kind of assay: Selectivity interaction (KinomeScan (DiscoverX)) EUB0001049a DDR2. Conditions: at 1 µM.

The target in assay [3] is Phosphorylase b kinase gamma catalytic chain, skeletal muscle/heart isoform (Homo sapiens) (UniProt Q16816). The assay is described as follows: Selectivity interaction (KinomeScan (DiscoverX)) EUB0000655a PHKG1. To be noted: at 10 µM.
Chain of Phosphorylase b kinase gamma catalytic chain, skeletal muscle/heart isoform (Homo sapiens) (Q16816 whole entry, looked up, canonical isoform): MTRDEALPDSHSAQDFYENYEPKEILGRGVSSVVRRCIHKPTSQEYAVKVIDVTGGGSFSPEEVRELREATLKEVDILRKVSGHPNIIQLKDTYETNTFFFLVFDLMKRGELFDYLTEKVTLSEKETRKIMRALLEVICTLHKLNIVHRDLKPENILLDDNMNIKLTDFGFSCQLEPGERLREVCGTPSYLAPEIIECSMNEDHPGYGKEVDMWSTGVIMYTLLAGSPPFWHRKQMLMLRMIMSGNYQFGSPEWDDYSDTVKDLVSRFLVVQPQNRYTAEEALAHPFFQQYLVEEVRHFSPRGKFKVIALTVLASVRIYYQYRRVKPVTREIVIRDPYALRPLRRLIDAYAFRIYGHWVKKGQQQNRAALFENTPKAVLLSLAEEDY
In assay [4] the target is Fibroblast growth factor receptor 2 (Homo sapiens) (UniProt P21802). The assay is described as follows: Selectivity interaction (KinomeScan (DiscoverX)) EUB0000695a FGFR2. To be noted: at 100 nM.
Chain of Fibroblast growth factor receptor 2 (Homo sapiens) (P21802 22-821 limits assumed): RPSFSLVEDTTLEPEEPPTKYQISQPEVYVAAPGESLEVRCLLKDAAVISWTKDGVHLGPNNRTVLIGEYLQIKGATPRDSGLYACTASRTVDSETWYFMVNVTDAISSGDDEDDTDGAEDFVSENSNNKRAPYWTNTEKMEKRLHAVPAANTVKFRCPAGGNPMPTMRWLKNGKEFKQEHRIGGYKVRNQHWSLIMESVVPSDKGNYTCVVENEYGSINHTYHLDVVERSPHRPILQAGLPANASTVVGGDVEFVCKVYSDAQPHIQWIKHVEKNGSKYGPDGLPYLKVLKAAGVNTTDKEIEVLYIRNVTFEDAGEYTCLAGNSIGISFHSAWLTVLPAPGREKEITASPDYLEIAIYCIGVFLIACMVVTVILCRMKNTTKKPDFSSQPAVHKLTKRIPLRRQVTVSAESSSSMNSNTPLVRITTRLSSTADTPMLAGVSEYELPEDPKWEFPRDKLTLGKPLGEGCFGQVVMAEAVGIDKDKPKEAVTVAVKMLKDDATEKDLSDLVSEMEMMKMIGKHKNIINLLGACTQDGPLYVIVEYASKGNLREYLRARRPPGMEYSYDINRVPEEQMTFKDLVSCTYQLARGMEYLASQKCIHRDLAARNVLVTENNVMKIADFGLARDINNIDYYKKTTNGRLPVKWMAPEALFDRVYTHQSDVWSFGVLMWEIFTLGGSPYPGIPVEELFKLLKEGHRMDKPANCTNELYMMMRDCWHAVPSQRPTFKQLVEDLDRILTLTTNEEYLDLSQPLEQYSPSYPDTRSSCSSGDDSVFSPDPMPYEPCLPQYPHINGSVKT
Assay [5] concerns the target Proto-oncogene tyrosine-protein kinase receptor Ret (Homo sapiens, UniProt P07949). The assay is described as follows: Selectivity interaction (Kinase screening (Nanosyn)) EUB0000604a RET.
The target of assay [6] is T2, Phosphorylase b kinase gamma catalytic chain, liver/testis isoform (Homo sapiens) (UniProt P15735).
T2 sequence (whole entry): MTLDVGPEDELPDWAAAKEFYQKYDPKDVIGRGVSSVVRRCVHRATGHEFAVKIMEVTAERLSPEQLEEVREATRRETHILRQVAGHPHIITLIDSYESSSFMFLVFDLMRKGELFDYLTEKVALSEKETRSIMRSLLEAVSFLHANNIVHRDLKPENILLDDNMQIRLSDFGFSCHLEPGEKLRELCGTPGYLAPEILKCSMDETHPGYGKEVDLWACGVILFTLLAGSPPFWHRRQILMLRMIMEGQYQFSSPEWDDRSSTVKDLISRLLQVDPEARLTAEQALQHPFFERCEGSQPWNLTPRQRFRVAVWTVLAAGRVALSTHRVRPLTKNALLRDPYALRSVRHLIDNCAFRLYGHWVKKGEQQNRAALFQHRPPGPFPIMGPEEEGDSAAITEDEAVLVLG
Kind of assay: Selectivity interaction (ActivX KiNativ screen (kinase selectivity in THP-1 cell lysates)) EUB0000639a PHKG2. To be noted: lysate. The format is subcellular.

The target of assay [7] is Platelet-derived growth factor receptor beta (Homo sapiens, UniProt P09619). Kind of assay: Selectivity interaction (Kinase panel (enzymatic assay)) EUB0000595a PDGFRB.
Chain of Platelet-derived growth factor receptor beta (P09619 whole entry): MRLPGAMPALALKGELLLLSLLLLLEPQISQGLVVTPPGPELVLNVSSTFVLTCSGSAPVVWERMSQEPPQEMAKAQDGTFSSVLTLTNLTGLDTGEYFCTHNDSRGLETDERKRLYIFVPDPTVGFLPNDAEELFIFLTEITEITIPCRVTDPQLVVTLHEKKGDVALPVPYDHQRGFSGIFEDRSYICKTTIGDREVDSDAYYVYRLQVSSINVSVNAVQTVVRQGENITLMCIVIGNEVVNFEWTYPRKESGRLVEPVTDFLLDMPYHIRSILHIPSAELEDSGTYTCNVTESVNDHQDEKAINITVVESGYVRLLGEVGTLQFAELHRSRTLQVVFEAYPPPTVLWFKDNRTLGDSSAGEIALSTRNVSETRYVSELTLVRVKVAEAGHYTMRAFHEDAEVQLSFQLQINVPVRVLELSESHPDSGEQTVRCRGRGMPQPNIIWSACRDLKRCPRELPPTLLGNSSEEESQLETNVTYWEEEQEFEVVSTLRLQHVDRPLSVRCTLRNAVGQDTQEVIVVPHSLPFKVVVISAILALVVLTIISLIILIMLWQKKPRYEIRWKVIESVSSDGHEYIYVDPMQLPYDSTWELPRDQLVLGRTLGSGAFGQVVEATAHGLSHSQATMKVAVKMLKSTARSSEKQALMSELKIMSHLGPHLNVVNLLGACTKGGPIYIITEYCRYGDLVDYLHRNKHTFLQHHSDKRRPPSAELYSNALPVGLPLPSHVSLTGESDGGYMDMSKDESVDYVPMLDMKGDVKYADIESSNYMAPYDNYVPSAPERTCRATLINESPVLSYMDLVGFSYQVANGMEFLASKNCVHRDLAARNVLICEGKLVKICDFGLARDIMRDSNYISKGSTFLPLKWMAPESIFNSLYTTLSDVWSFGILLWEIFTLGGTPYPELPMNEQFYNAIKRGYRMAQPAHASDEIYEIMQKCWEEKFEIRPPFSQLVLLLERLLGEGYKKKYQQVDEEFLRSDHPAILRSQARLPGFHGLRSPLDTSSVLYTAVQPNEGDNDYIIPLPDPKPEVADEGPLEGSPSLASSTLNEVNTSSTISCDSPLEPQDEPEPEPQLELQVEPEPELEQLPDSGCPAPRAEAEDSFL
For assay [8], the target named is Phosphatidylinositol 4-phosphate 5-kinase type-1 gamma (Homo sapiens) (UniProt O60331). The assay is described as follows: Selectivity interaction (KinomeScan (DiscoverX)) EUB0001619a PIP5K1C. To be noted: at 1 µM.
For assay [9], the target named is Microtubule-associated serine/threonine-protein kinase 3 (Homo sapiens) (UniProt O60307). The assay is described as follows: Selectivity interaction (ActivX KiNativ screen (ex vivo kinase selectivity in human PBMCs)) EUB0001619a MAST3. The assay is classed as cell-based. To be noted: PBMC, at 1 µM.
In assay [10] the target is STE20-like serine/threonine-protein kinase (Homo sapiens, UniProt Q9H2G2). Kind of assay: Selectivity interaction (Kinase panel (KiNativ target engagement assay in Jurkat cells)) EUB0001635a SLK. To be noted: Selectivity number of off-targets 0.0, Selectivity number of targets 233.0, Source Knowledge https://www.sciencedirect.com/science/article/pii/S2451945619300674?via%3Dihub, at 1 µM. The format is cell-based.
Chain of STE20-like serine/threonine-protein kinase (Q9H2G2 whole entry, looked up): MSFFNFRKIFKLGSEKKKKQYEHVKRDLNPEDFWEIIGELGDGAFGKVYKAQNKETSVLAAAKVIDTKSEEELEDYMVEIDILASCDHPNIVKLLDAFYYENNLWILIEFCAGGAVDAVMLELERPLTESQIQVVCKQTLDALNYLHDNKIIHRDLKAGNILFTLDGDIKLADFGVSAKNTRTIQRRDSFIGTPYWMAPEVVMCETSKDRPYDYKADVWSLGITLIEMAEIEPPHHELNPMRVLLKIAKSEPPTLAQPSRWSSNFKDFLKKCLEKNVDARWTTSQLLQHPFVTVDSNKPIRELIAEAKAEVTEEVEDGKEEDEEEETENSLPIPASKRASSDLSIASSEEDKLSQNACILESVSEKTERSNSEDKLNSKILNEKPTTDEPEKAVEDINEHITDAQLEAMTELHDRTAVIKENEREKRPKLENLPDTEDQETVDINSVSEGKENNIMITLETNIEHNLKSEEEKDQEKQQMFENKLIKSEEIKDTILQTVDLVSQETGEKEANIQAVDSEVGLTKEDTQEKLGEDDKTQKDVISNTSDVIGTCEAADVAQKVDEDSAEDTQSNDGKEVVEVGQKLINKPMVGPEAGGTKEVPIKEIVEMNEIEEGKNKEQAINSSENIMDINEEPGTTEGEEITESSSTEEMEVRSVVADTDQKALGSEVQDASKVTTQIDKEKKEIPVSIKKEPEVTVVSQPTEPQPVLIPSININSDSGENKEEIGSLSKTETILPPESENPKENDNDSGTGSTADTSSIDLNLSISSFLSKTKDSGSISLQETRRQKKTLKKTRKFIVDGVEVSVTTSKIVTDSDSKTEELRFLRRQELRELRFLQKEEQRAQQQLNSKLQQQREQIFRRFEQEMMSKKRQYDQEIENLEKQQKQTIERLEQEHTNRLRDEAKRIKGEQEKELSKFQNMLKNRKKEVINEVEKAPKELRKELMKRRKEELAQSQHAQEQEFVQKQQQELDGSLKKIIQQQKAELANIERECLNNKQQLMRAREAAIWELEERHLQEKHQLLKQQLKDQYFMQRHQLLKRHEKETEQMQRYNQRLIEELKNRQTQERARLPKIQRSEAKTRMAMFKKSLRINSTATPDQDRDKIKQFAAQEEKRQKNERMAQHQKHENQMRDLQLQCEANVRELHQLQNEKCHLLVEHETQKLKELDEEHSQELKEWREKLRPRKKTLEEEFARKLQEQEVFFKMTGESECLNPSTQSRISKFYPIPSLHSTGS

The target of assay [11] is T3, Mitogen-activated protein kinase kinase kinase kinase 2 (Homo sapiens) (UniProt Q12851).
T3 sequence (whole entry): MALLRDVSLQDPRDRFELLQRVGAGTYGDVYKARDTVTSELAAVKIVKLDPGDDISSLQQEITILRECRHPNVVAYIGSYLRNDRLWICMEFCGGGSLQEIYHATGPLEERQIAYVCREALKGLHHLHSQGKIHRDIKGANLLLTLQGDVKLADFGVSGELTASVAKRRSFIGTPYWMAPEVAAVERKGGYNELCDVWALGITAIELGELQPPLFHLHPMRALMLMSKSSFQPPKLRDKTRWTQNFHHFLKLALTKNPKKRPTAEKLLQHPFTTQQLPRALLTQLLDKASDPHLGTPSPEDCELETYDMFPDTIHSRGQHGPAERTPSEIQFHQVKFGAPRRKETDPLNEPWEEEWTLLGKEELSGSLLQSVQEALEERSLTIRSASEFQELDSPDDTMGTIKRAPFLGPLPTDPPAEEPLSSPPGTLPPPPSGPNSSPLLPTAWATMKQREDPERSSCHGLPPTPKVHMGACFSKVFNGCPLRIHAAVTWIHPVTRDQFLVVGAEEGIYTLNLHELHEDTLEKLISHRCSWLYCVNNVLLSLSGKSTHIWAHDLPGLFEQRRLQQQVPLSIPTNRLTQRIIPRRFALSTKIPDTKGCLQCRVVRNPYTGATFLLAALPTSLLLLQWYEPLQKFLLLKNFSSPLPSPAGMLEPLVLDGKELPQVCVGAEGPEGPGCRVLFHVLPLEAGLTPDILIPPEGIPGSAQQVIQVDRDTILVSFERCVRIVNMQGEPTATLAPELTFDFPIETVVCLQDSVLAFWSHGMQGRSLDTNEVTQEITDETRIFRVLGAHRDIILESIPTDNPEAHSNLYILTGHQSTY
The assay is described as follows: Selectivity interaction (KinomeScan (DiscoverX)) EUB0000618a MAP4K2. To be noted: at 10 µM.

Chain of Mitogen-activated protein kinase 3 (P27361 whole entry, the tested form may be a part): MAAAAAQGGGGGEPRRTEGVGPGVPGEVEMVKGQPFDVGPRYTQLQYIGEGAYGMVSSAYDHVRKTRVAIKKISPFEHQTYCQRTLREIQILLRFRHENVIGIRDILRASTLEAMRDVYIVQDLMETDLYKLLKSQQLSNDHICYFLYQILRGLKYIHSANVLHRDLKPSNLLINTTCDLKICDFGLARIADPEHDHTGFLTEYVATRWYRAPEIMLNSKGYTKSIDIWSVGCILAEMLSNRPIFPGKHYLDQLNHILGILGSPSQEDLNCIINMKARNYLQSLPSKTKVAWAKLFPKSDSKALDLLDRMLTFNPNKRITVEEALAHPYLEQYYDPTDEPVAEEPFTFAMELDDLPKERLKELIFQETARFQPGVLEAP
Chain of Proto-oncogene tyrosine-protein kinase receptor Ret (P07949 whole entry, canonical isoform): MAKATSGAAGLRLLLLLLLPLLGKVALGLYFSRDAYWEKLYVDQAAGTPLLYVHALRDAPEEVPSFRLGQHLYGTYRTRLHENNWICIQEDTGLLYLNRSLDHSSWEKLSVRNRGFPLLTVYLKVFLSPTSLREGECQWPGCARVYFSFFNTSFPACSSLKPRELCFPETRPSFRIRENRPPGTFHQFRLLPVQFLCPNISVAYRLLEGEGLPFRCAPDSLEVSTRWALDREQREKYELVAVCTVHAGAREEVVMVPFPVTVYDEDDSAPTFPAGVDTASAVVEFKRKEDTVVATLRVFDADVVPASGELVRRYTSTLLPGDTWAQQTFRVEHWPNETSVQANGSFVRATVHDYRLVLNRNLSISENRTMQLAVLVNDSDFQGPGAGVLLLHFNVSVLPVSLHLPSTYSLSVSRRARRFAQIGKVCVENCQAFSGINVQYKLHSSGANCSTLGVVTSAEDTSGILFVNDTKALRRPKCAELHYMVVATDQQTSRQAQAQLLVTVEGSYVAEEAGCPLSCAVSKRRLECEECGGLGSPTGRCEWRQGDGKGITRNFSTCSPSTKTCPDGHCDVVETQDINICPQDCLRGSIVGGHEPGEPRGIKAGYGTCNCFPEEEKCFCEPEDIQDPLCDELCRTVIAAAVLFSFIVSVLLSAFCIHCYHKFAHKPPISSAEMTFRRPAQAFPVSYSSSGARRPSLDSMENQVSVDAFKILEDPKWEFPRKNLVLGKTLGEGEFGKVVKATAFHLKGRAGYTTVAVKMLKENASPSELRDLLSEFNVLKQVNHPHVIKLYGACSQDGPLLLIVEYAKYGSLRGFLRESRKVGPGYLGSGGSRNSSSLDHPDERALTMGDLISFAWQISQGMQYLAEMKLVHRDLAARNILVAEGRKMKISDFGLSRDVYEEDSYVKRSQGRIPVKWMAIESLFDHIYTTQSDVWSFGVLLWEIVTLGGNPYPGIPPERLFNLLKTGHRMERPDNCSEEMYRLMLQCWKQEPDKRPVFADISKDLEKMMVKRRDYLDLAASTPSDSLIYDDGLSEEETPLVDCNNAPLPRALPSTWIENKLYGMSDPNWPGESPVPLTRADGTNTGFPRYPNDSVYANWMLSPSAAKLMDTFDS

As for `C=CC(=O)Nc1cccc(C(=O)Nc2ccc(Nc3cc(-c4[nH]c(SC)nc4C)ccn3)cc2)c1`, the % of control was determined as 101% in [1] (at 1 µM) and 99% in assay [1] (at 5 µM).
Turning to `COc1cc(Nc2nc(C)cc(-c3cnn4nc(OC)ccc34)n2)cc(C(F)(F)F)c1`, in assay [2], the % of control came to 65%.
Turning to `CN(C)CCOc1ccc(-c2nc(-c3ccncc3)c(-c3ccc4c(c3)CC/C4=N\O)[nH]2)cc1`, in assay [3], the % of control worked out at 94%.
With `Cc1cc(F)c(C(=O)Nc2cccc(-c3nncn3C(C)C)n2)cc1-n1cnc(C2CC2)c1`, the % of control in assay [4] worked out at 97%.
With `Cc1cnc(Nc2ccc(F)cc2Cl)nc1-c1c[nH]c(C(=O)N[C@H](CO)c2cccc(Cl)c2)c1`, the % of inhibition in [5] turned out to be 3%.
With `CC[C@@H]1[C@H](F)C(=O)N[C@@H]1COc1nccc2cc(C(N)=O)c(OC)cc12` [ZIMLOVISERTIB], the % of inhibition in assay [6] (at 0.01 µM) was 15.9%; in [6] (at 0.04 µM) it was 3.7%; in assay [6] (at 0.2 µM) it was 0.2%; in assay [6] (at 1 µM), -8.2%; in [6] (at 5 µM), 7%.
`COCC(=O)NC/C=C/c1ccc2ncnc(Nc3ccc(Oc4ccc(C)nc4)c(C)c3)c2c1` [CP-724714] gave an IC50 in [7] of over 10 µM.
`N#Cc1cccc(-c2c[nH]c3ncnc(N4CCOCC4)c23)c1` registered a % of control in [8] of 70%. In addition, the % of inhibition in [9] was 1%.
In the case of `C=CC(=O)Nc1ccc(C(=O)Nc2[nH]nc3c2CN(C(=O)N[C@H](CN(C)C)c2ccccc2)C3(C)C)cc1`, the % of engagement in assay [10] was -7.6%.
The molecule `O[C@H]1CC[C@H](Nc2ncc3nc(Nc4c(F)cc(F)cc4F)n([C@H]4CCOC4)c3n2)CC1` returned a % of control in assay [11] of 91%.
